Measurements: PMC5560554, “Targeting of CDK9 with indirubin 3’-monoxime safely and durably reduces HIV viremia in chronically infected humanized mice” (PLoS ONE, 2017)
Where two headings read alike, the source gives them in different places.

Test system: HIV-1 NL4-3
Test: Drug susceptibility assay in PHA-activated PBMCs (HIV p24 ELISA day 7)
Assay type: cell-based
Details: for decrease of ART EC50 value at 1 μM IM: HIV-1 NL4-3 in PBMCs, EC50 without IM vs with 1 μM IM; for EC50: Human immunodeficiency virus 1, NL43, PBMC, 168 h, HIV NL4-3 in PBMCs, p24 day 7, (95% CI) in cell; for P24: PBMCs, NL4-3, day 7
Description: The ARTs tenofovir, raltegravir and indinavir were obtained from the NIH AIDS Research and Reference Reagent Program (Gaithersburg, MD). Drug susceptibility assays were performed in PBMCs as previously. Briefly, donor PBMCs were activated by culture with phytohemagglutinin (PHA) for 3 days. Activated PBMCs were infected with HIV (M.O.I of 0.001) for 2 hours in the absence of IM or ARTs, washed to remove non-adsorbed virus, and plated in culture medium containing IL-2 and various dilutions of IM and ARTs alone and in combination. On day 3, fresh medium with fresh drug was added to the cultures. On day 7, cultures were evaluated for HIV production by measuring HIV p24 levels in the culture supernatants by ELISA (PerkinElmer Life Sciences, Inc., Boston, Massachusetts). Data were normalized to p24 levels in drug untreated controls (100%) and EC50 values determined by fitting the data to sigmoidal dose-response (variable slope) curves using GraphPad Prism 5.0 software.
A potential use of CDK9 inhibitor for the treatment of HIV will probably be in combination with ARTs from other classes. We thus evaluated the antiviral interaction between IM and ARTs from the NRTI, integrase and protease inhibitor classes in PBMCs infectivity assays in vitro. We used the virus strain HIV-1 NL4-3 to ensure a robust viral replication in the assays. Although HIV-1 NL4-3 differs from HIV-1 BaL in usage of coreceptor for cell entry, it is expected to have similar sensitivity to the tested ARTs. […] These enhancements of ART potencies by IM are consistent with targeting of different steps of the HIV cycle by IM and the tested ARTs.

[1] = read-out: Geometric mean ART EC50, + 1μM IM
[2] = read-out: Geometric mean ART EC50, No IM

CC(C)(C)NC(=O)[C@@H]1CN(Cc2cccnc2)CCN1C[C@@H](O)C[C@@H](Cc1ccccc1)C(=O)N[C@H]1c2ccccc2C[C@H]1O [IND, indinavir]
decrease of ART EC50 value at 1 μM IM: 2.2 fold | EC50 (+ 1μM IM, read-out: Geometric mean ART EC50): 3.55 nM | EC50 (No IM, read-out: Geometric mean ART EC50): 7.74 nM | P24 (IND 1.8 nM, + IM): 2.00 ng/mL | P24 (IND 1.8 nM, No IM): 41.00 ng/mL | P24 (IND 5.5 nM, + IM): 2.30 ng/mL | P24 (IND 5.5 nM, No IM): 37.00 ng/mL | P24 (IND 16.6 nM, + IM): 0.70 ng/mL | P24 (IND 16.6 nM, No IM): 17.00 ng/mL | P24 (IND 50 nM, + IM): 0.01 ng/mL | P24 (IND 50 nM, No IM): 0.01 ng/mL | P24 (IND 150 nM, + IM): 0.01 ng/mL | P24 (IND 150 nM, No IM): 0.01 ng/mL

Cc1nnc(C(=O)NC(C)(C)c2nc(C(=O)NCc3ccc(F)cc3)c(O)c(=O)n2C)o1 [RAL, raltegravir]
decrease of ART EC50 value at 1 μM IM: 3.3 fold | EC50 [1]: 2.12 nM | EC50 [2]: 6.98 nM | P24 (RAL 0.05 nM, + IM): 9.50 ng/mL | P24 (RAL 0.05 nM, No IM): 27.0 ng/mL | P24 (RAL 0.15 nM, + IM): 6.00 ng/mL | P24 (RAL 0.15 nM, No IM): 23.0 ng/mL | P24 (RAL 0.5 nM, + IM): 6.50 ng/mL | P24 (RAL 0.5 nM, No IM): 27.0 ng/mL | P24 (RAL 1.5 nM, + IM): 5.00 ng/mL | P24 (RAL 1.5 nM, No IM): 26.0 ng/mL | P24 (RAL 5 nM, + IM): 2.30 ng/mL | P24 (RAL 5 nM, No IM): 17.0 ng/mL | P24 (RAL 15 nM, + IM): 1.10 ng/mL | P24 (RAL 15 nM, No IM): 2.8 ng/mL | P24 (RAL 45 nM, + IM): 0.01 ng/mL | P24 (RAL 45 nM, No IM): 0.6 ng/mL

C[C@H](Cn1cnc2c(N)ncnc21)OCP(=O)(O)O [TDF, tenofovir]
decrease of ART EC50 value at 1 μM IM: 3 fold | EC50 [1]: 190 nM | EC50 [2]: 600 nM | P24 (TDF 0.01 µM, + IM): 10.0 ng/mL | P24 (TDF 0.01 µM, No IM): 63.0 ng/mL | P24 (TDF 0.03 µM, + IM): 9.0 ng/mL | P24 (TDF 0.03 µM, No IM): 61.0 ng/mL | P24 (TDF 0.1 µM, + IM): 6.6 ng/mL | P24 (TDF 0.1 µM, No IM): 48.0 ng/mL | P24 (TDF 0.3 µM, + IM): 3.8 ng/mL | P24 (TDF 0.3 µM, No IM): 35.0 ng/mL | P24 (TDF 1 µM, + IM): 1.7 ng/mL | P24 (TDF 1 µM, No IM): 17.0 ng/mL | P24 (TDF 3 µM, + IM): 0.7 ng/mL | P24 (TDF 3 µM, No IM): 4.0 ng/mL | P24 (TDF 10 µM, + IM): 0.3 ng/mL | P24 (TDF 10 µM, No IM): 0.6 ng/mL
